Measurements from US20220144853A1, “IMIDAZOLINE DERIVATIVES AS CXCR4 MODULATORS” (Université de Paris, priority 2019, published 2022).
Structures can show the parent of a compound that is named as a salt.

Legend:
IFN-γ = test: Cytokine production by R848-activated PBMCs, LEGENDplex Human Inflammation panel 1: IFN-γ; assay type: cell-based; settings: Homo sapiens, PBMC, PBMCs from 2 healthy donors, R848 overnight
Experimental: (§1) 2) The PBMCs used herein were prepared as described in part A “immune cells preparation”, section 2) above. PBMCs were seeded at 4.10^6/mL. […] Cells were then stimulated with the TLR7/8 agonist resiquimod—R848 (Sigma-Aldrich, MO, USA) at 5 μg/mL.
(§2) Cytokine expression levels were assessed using LEGENDplex Human inflammation panel 1 Kit (BioLegend, California, USA), which is a bead-based multiplex assay, using fluorescence-encoded beads. […] First, supernatants of R848-stimulated PBMCs were harvested after 24 h of stimulation and frozen at −20° C. for storage. Supernatants were dispensed into a 96-well V-bottom plate. Protocol pursued as per manufacturer recommendations (Manual for BioLegend LEGENDplex, Multi-Analyte Flow Assay Kit, Human Inflammation Panel 1, version 750000393_R01).

IL-12p70 = test: Cytokine production by R848-activated PBMCs, LEGENDplex Human Inflammation panel 1: IL-12p70; assay type: cell-based; settings: Homo sapiens, PBMC, PBMCs from 2 healthy donors, R848 overnight
Experimental: as §1, §2

[1] = target: T1, human CXCR4 (hCXCR4) receptor (Homo sapiens, UniProt P61073); test: BRET assay of antagonist activity on the CXCR4-CXCL12 signaling pathway in transfected HEK-293 T cells; assay type: cell-based; settings: Gαi1, Gαi2, Gαi3, GαoB or Gαz, EC80 CXCL12, FIG. 6
T1 construct: expressed in transfected cells; host or cells: HEK-293 T cells, transient co-transfection with polyethylenimine
Experimental: Examples of the present invention were tested for their antagonist activity on human CXCR4 (hCXCR4) receptor transiently over-expressed in HEK-293 T cells. Compounds exert antagonist activity if they decrease the action of CXCL12 on the receptor.
HEK-293 T cells are maintained in Dulbecco's Modified Eagle's Medium supplemented with 10% Foetal Calf Serum, 1% Penicillin/Streptomycin at 37° C./5% CO2. […] After transfection, cells are cultured for 48 h at 37° C./5% CO2.
On the day of the assay, cells are detached using trypsin 0.05%, resuspended in assay buffer (1.8 mM CaCl2, 1 mM MgCl2, 2.7 mM KCl, 137 mM NaCl, 0.4 mM NaH2PO4, 5.5 mM D-Glucose, 11.9 mM NaHCO3, 25 mM Hepes) and seeded in 384 well plate at a density of 20,000 cells per well.
Cells are first incubated for 10 minutes with the compound alone. Then, cells are stimulated by an EC80 CXCL12 concentration for additional 10 minutes and luminescence is recorded. […] Antagonist activity is evaluated in comparison to basal signals evoked by EC80 CXCL12 alone.
For IC50 determination, a dose-response test is performed using 20 concentrations (ranging over 6 logs) of each compound. Dose-response curves are fitted using the sigmoidal dose-response (variable slope) analysis in GraphPad Prism software (GraphPad Software) and IC50 of antagonist activity is calculated. […]

IL-1β = test: Cytokine production by R848-activated PBMCs, LEGENDplex Human Inflammation panel 1: IL-1β; assay type: cell-based; settings: Homo sapiens, PBMC, PBMCs from 2 healthy donors, R848 overnight, read-out: IC50 (μM) 1L-1β
Experimental: as §1, §2

TNF-α = test: Cytokine production by R848-activated PBMCs, LEGENDplex Human Inflammation panel 1: TNF-α; assay type: cell-based; settings: Homo sapiens, PBMC, PBMCs from 2 healthy donors, R848 overnight
Experimental: as §1, §2

[2] = system: IFN production by activated immune cells (PBMC) from lupus patients; test: IFN production by R848-activated PBMC from lupus patients, STING-37 reporter cell line; assay type: cell-based, human; settings: 10 μM, PBMC from three SLE patients, FIG. 2
Experimental: Material from Juvenile Dermatomyositis and Lupus patients were obtained from Necker Hospital, Paris, France or from Imagine Institute, Paris, France. The study was approved by the Conité des Protection des Personnes (ID-RCB/EUDRACT: 2014-A01017-40 and 2018-A01358-47) in France.
In vitro experiments were performed using human peripheral blood mononuclear cells (PBMCs) isolated by density centrifugation from peripheral blood leukocyte separation medium (Cambrex, Gaithersburg, Md.).
PBMCs were cultured in RPMI 1640 (Invitrogen, Gaithersburg, Md.) (R10) containing 10% heat-inactivated fetal bovine serum, 100 U/mL Penicilium and 100 μg/mL Streptomycin (1% Pen-Strep) and 1 mM glutamine (Hyclone, Logan, Utah).
1) The PBMCs used herein were prepared as described in part A “immune cells preparation”, section 1) above. PBMCs were seeded at 2.10^6/mL. […] Cells were then stimulated with the TLR7/8 agonist resiquimod—R848 (Invivogen) at 5 μg/mL. […]
1) To quantify the secretion of functional IFN, a biological assay based on a stable cell line where luciferase reporter gene is controlled by five Interferon-Stimulated Response Elements (STING37 cell line) was used. […] After 24 h of culture, luciferase activity was determined by adding 50 μL of Bright-Glo reagents (Promega) to culture wells and measuring bioluminescence with a luminometer.

IL-23 = test: Cytokine production by R848-activated PBMCs, LEGENDplex Human Inflammation panel 1: IL-23; assay type: cell-based; settings: Homo sapiens, PBMC, PBMCs from 2 healthy donors, R848 overnight
Experimental: as §1, §2

IL-18 = test: Cytokine production by R848-activated PBMCs, LEGENDplex Human Inflammation panel 1: IL-18; assay type: cell-based; settings: Homo sapiens, PBMC, PBMCs from 2 healthy donors, R848 overnight
Experimental: as §1, §2

T1 sequence (P61073 whole entry): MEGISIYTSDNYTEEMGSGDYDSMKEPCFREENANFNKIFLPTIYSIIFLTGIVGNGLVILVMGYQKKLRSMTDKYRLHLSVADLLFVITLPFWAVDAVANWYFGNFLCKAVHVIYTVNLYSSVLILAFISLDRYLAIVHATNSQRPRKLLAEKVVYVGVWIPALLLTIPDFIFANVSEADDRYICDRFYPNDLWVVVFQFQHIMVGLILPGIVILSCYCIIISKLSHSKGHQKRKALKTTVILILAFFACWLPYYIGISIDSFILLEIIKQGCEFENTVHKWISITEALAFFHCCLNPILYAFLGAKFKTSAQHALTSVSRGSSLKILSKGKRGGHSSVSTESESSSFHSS

CC1(C)CN2C(CSC3=NCC(C)(C)N3)=CSC2=N1 [Example 2, 3-(((5,5-dimethyl-4,5-dihydro-1H-imidazol-2-yl)thio)methyl)-6,6-dimethyl-5,6-dihydroimidazo[2,1-b]thiazole dihydrochloride]
IC50 (IFN-γ): 26 µM
IC50 (IL-12p70): 14 µM
antagonist activity: recruitment of G proteins induced by the hCXCR4-CXCL12 interaction [1]: significantly lower than IT1t
IC50 (IL-1β): 32 µM
IC50 (TNF-α): 46 µM
IFN production by activated PBMCs [2]: level similar to the one of unstimulated negative controls
IC50 (IL-23): 4.7 µM
IC50 (IL-18): 13 µM
